From patent US20240254109A1, “SALT CONTAINING PIPERAZINE POLYCYCLIC DERIVATIVE, CRYSTAL FORM THEREOF, PREPARATION METHOD THEREFOR, AND USE THEREOF” (Shanghai Hansoh Biomedical Co., Ltd., priority 2021, published 2024) come the findings set out here.

The nature of series [1]: Pharmacokinetic assay in Balb/c mice (plasma and brain tissue). In kind it is in vivo. Particulars: p.o. 5 mg/kg. Here is the method: (III). Pharmacokinetic Assay in Balb/c Mice
Balb/c mice were used as test animals. The pharmacokinetic behavior in mouse body (plasma and brain tissue) of the compounds of Examples of the present invention was studied at an oral administration dose of 5 mg/kg.
Male Balb/c mice (12 mice per group), purchased from Shanghai Jiesijie Laboratory Animal Co., LTD, with Certificate No.: SCXK (Shanghai) 2013-0006 N0.311620400001794.
The test compound was dissolved in 0.5% CMC-Na (1% Tween80) by sonication to formulate a clear solution or homogeneous suspension.
After an overnight fast, male Balb/c mice (12 mice per group) were administered p.o. with the test compound at an administration dose of 5 mg/kg and an administration volume of 10 mL/kg.
0.2 mL of blood was taken from the heart of the mouse before administration and at 1, 2, 4, 8 and 24 hours after administration, and the mice were sacrificed with CO2. The samples were stored in EDTA-K2 tubes, and centrifuged for 6 minutes at 4° C., 6000 rpm to separate the plasma. The plasma samples were stored at −80° C. Whole brain tissue was taken out, weighed, placed in a 2 mL centrifuge tube, and stored at −80° C.
1) 160 μL of acetonitrile was added to 40 μL of the plasma sample for precipitation, and then the mixture was centrifuged for 5 to 20 minutes at 3500×g.
2) 90 μL of acetonitrile containing internal standard (100 ng/mL) was added to 30 μL of the plasma and brain homogenate sample for precipitation, and then the mixture was centrifuged for 8 minutes at 13000 rpm.
3) 70 μL of water was added to 70 μL of the treated supernatant and mixed by vortex for 10 minutes. 20 μL of the supernatant was taken to analyze the concentration of the test compound by LC/MS/MS. LC/MS/MS analytical instrument: AB Sciex API 4000 Qtrap.
• Liquid chromatography condition: Shimadzu LC-20AD pump • Chromatographic column: Agilent ZORBAX XDB-C18 (50×2.1 mm, […]); Mobile phase: Eluent A was 0.1% formic acid in water, and Eluent B was acetonitrile • Flow rate: 0.4 mL/min • Elution time: 0-4.0 minutes, the eluent is as follows:
The main parameters of pharmacokinetics were calculated by WinNonlin 6.1.

The nature of series [2]: Solid stability experiment of crystal form of salt. Particulars: for Maximum single impurity increase % / Total impurity increase %: listed as Crystal form B of p-toluenesulfonate. In kind it is physicochemical. Here is the method: 4. Solid Stability Experiment
The physicochemical stability of crystal form of salt of compound N-(trans-3-(2-(4-(2,3-dichlorophenyl)piperazin-1-yl)ethyl)cyclobutyl)oxazole-2-carboxamide under the conditions of light 50001×, high temperature 60° C., high humidity 92.5% RH and high temperature and high humidity 50° C. 75% RH was investigated, which provided a basis for crystal form screening and compound crystal form storage.
About 1 mg of different crystal forms of salt were taken and placed under the conditions of light 50001×, high temperature 60° C., high humidity 92.5% RH, high temperature and high humidity 50° C. 75% RH for 5 days and 10 days. The salt content was determined by HPLC and external standard method, and the change of relevant substances was calculated by chromatographic peak area normalization method.

Series [3] is described as follows: Stability study of salt (5 days and 10 days, HPLC related substances). In kind it is physicochemical. On the procedure:
2.1.3 Stability Study of Salt
Hydrochloride and p-toluenesulfonate of N-(trans-3-(2-(4-(2,3-dichlorophenyl)piperazin-1-yl)ethyl)cyclobutyl)oxazole-2-carboxamide were weighed about 1 mg, respectively, and then placed under light (5000 lux), high temperature (60° C.), high humidity (92.50 RH), high temperature and high humidity (50° C. and 75% RH) for 5 days and 10 days, then a diluent DMSO was added to prepare a solution with salt concentration of about 1 mg/mL.
The chromatographic peak area normalization method was used to calculate the changes of related substances.

[4] abbreviates: GWGS-5 d (high temperature and high humidity).
Setting [5] is: GWGS-10 d (high temperature and high humidity).

As to `CCN(C)C(=O)NC1CC(CCN2CCN(c3cccc4sccc34)CC2)C1` (stereo not drawn) [Example 24, 3-(3-(2-(4-(Benzo[b]thiophen-4-yl)piperazin-1-yl)ethyl)cyclobutyl)-1-ethyl-1-methylurea], the results for the Peak time tmax in series [1] (Brain) and in series [1] (Plasma) were 1 h and 0.5 h, respectively.
In the case of `O=C(NC1CC(CCN2CCN(c3cccc(Cl)c3Cl)CC2)C1)C1(O)CC1` (stereo not drawn) [Example 6, N-(3-(2-(4-(2,3-Dichlorophenyl)piperazin-1-yl)ethyl)cyclobutyl)-1-hydroxycyclopropane-1-carboxamide], the Peak time tmax in series [1] (Brain) was determined as 1 h; in series [1] (Plasma), 0.5 h.
For `O=C(N[C@H]1C[C@H](CCN2CCN(c3cccc(Cl)c3Cl)CC2)C1)c1cccc2ncccc12` [Example 19A, N-(trans-3-(2-(4-(2,3-dichlorophenyl)piperazin-1-yl)ethyl)cyclobutyl)quinoline-5-carboxamide] the same measures were 1 h and 0.5 h.
As to `O=C(N[C@H]1C[C@H](CCN2CCN(c3cccc(Cl)c3Cl)CC2)C1)c1ncco1` [crystal form B of p-toluenesulfonate, N-(trans-3-(2-(4-(2,3-dichlorophenyl)piperazin-1-yl)ethyl)cyclobutyl)oxazole-2-carboxamide], the “Maximum single impurity increase %” value in series [2] (High humidity, 5 Days) is given as less than 0.02%; in series [2] (Light, 5 Days), 0.13%; in series [2] (Light, 10 Days), 0.13%. In addition, the “Total impurity increase %” value in series [2] (High humidity, 5 Days) is given as less than 0.02%; in series [2] (High temperature, 10 Days), less than 0.02%; in series [2] (Light, 5 Days) it was 0.03%; in series [2] (Light, 10 Days), 0.19%. The single impurity entry in series [2] (light conditions) is listed as “increases significantly”. For the same compound, the crystal form stability entry in series [2] (other conditions than light) is reported as “stable”.
Take `O=C(N[C@H]1C[C@H](CCN2CCN(c3cccc(Cl)c3Cl)CC2)C1)C1(O)CC1` [Example 6A, N-(Trans-3-(2-(4-(2,3-dichlorophenyl)piperazin-1-yl)ethyl)cyclobutyl)-1-hydroxycyclopropane-1-carboxamide]: the Peak time tmax turned out to be 1 h in series [1] (Brain) and 0.5 h in series [1] (Plasma).
In the case of `O=C(NC1CC(CCN2CCN(c3cccc(Cl)c3Cl)CC2)C1)c1nccs1` (stereo not drawn) [Example 7, N-(3-(2-(4-(2,3-Dichlorophenyl)piperazin-1-yl)ethyl)cyclobutyl)thiazole-2-carboxamide], the Peak time tmax stood at 1 h in series [1] (Brain) and 0.5 h in series [1] (Plasma).
For `O=C(N[C@H]1C[C@@H](CCN2CCN(c3cccc(Cl)c3Cl)CC2)C1)C1(O)CC1` [Example 6B, N-(Cis-3-(2-(4-(2,3-dichlorophenyl)piperazin-1-yl)ethyl)cyclobutyl)-1-hydroxycyclopropane-1-carboxamide] the same measures were 1 h and 0.5 h.
As for `O=C(N[C@H]1C[C@H](CCN2CCN(c3cccc(Cl)c3Cl)CC2)C1)c1ncco1` [Example 12A, N-(Trans-3-(2-(4-(2,3-dichlorophenyl)piperazin-1-yl)ethyl)cyclobutyl)oxazole-2-carboxamide], the Peak time tmax came to 1 h in series [1] (Brain) and 0.5 h in series [1] (Plasma).
Taken in the same sequence, the figures for `O=C(N[C@H]1C[C@H](CCN2CCN(c3cccc(Cl)c3Cl)CC2)C1)c1nccs1` [Example 7A, N-(Trans-3-(2-(4-(2,3-dichlorophenyl)piperazin-1-yl)ethyl)cyclobutyl)thiazole-2-carboxamide] were 1 h and 1 h.
For `O=C(N[C@H]1C[C@@H](CCN2CCN(c3cccc(Cl)c3Cl)CC2)C1)c1ncco1` [Example 12B, N-(Cis-3-(2-(4-(2,3-dichlorophenyl)piperazin-1-yl)ethyl)cyclobutyl)oxazole-2-carboxamide] the same measures were 1 h and 0.5 h.
Regarding `O=C(N[C@H]1C[C@H](CCN2CCN(c3cccc(Cl)c3Cl)CC2)C1)c1ncco1` [p-toluenesulfonate, N-(trans-3-(2-(4-(2,3-dichlorophenyl)piperazin-1-yl)ethyl)cyclobutyl)oxazole-2-carboxamide], the “RRT 0.190 Area %” value in series [3] (0 d) is reported as 0.317%; in series [3] (GS-5 d (high humidity)), 0.213%; in series [3] (GS-10 d (high humidity)) it was 0.233%; in series [3] (GW-5 d (high temperature)), 0.163%; in series [3] (GW-10 d (high temperature)) it was 0.224%; in series [3] (setting [4]), 0.348%. Also, the “RRT 0.190 Area %” value in series [3] (setting [5]) is 0.319%; in series [3] (GZ-5 d (light)), 0.266%; in series [3] (GZ-10 d (light)) it was 0.324%. In addition, the “RRT 0.210 Area %” value in series [3] (0 d) is 0.073%; in series [3] (GS-5 d (high humidity)) it was 0.074%; in series [3] (GS-10 d (high humidity)), 0.075%; in series [3] (GW-5 d (high temperature)), 0.072%; in series [3] (GW-10 d (high temperature)), 0.075%; in series [3] (setting [4]), 0.072%. Further, the results for the “RRT 0.210 Area %” value in series [3] (setting [5]), in series [3] (GZ-5 d (light)) and in series [3] (GZ-10 d (light)) were 0.074%, 0.072% and 0.073%, respectively. For the same compound, the “RRT 1.000 Area %” value in series [3] (0 d) was 99.217%; in series [3] (GS-5 d (high humidity)) it was 99.310%; in series [3] (GS-10 d (high humidity)) it was 99.298%; in series [3] (GW-5 d (high temperature)) it was 99.400%; in series [3] (GW-10 d (high temperature)), 99.319%; in series [3] (setting [4]) it was 99.204%. Moreover, the “RRT 1.000 Area %” value is recorded as 99.246% in series [3] (setting [5]), 99.184% in series [3] (GZ-5 d (light)) and 99.028% in series [3] (GZ-10 d (light)). The “RRT 1.050 Area %” value in series [3] (0 d) is 0.149%; in series [3] (GS-5 d (high humidity)), 0.145%; in series [3] (GS-10 d (high humidity)), 0.143%; in series [3] (GW-5 d (high temperature)), 0.121%; in series [3] (GW-10 d (high temperature)), 0.131%; in series [3] (setting [4]), 0.137%. The “RRT 1.050 Area %” value in series [3] (setting [5]) stood at 0.128%; in series [3] (GZ-5 d (light)), 0.101%; in series [3] (GZ-10 d (light)) it was 0.115%. Also, the “RRT 1.190 Area %” value stood at 0.178% in series [3] (0 d); 0.177% in series [3] (GS-5 d (high humidity)); 0.180% in series [3] (GS-10 d (high humidity)); 0.175% in series [3] (GW-5 d (high temperature)); 0.178% in series [3] (GW-10 d (high temperature)); 0.170% in series [3] (setting [4]). Further, the entries for the “RRT 1.190 Area %” value in series [3] (setting [5]), in series [3] (GZ-5 d (light)) and in series [3] (GZ-10 d (light)) were 0.168%, 0.171% and 0.162%, respectively. For the same compound, the “RRT 1.540 Area %” value in series [3] (0 d) is recorded as 0.067%; in series [3] (GS-5 d (high humidity)), 0.080%; in series [3] (GS-10 d (high humidity)), 0.071%; in series [3] (GW-5 d (high temperature)), 0.068%; in series [3] (GW-10 d (high temperature)), 0.073%; in series [3] (setting [4]), 0.070%. The “RRT 1.540 Area %” value came to 0.065% in series [3] (setting [5]), 0.075% in series [3] (GZ-5 d (light)) and 0.066% in series [3] (GZ-10 d (light)). For the same compound, the “total Area % (related substances)” value worked out at 0.783% in series [3] (0 d); 0.690% in series [3] (GS-5 d (high humidity)); 0.702% in series [3] (GS-10 d (high humidity)); 0.600% in series [3] (GW-5 d (high temperature)); 0.681% in series [3] (GW-10 d (high temperature)); 0.796% in series [3] (setting [4]). Also, the “total Area % (related substances)” value in series [3] (setting [5]) was found to be 0.754%; in series [3] (GZ-5 d (light)), 0.816%; in series [3] (GZ-10 d (light)) it was 0.972%. Also, the “RRT 0.890 Area %” value in series [3] (GZ-5 d (light)) came to 0.130%; in series [3] (GZ-10 d (light)), 0.232%. In addition, in series [3] (high temperature, high humidity, and high temperature and high humidity, 5 and 10 days), the changes in impurities result is reported as “no significant changes in impurities”.
